Experimental findings from BindingDB's records for doi:10.7270/Q2668BKB (The Scripps Research Institute Molecular Screening Center, 2009) are described below.

The experiment deals with T1, 2'-phosphotransferase (Candida albicans (strain SC5314 / ATCC MYA-2876), UniProt Q5A7N4).
T1 sequence (Q5A7N4 whole entry): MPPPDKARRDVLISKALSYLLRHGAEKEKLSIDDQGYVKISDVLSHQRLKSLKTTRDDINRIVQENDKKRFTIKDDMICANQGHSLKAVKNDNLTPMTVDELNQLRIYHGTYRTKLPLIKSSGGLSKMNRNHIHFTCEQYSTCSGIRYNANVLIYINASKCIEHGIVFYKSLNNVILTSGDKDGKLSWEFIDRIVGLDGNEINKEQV
Put plainly: inhibition of Candida TPT1 enzyme activity – biochemical, fluorescence polarization, dose response (AID 2160).

pIC50: −log10 of the molar value.

`Cc1ccc2nc(N=NCc3ccc([N+](=O)[O-])o3)nc(-c3ccccc3)c2c1` gave a pIC50 of less than 4.25.
